# According to the supplement of paper PMC10307832:
# Assays:
# Assay in all cases: relative viability (nuclei count vs DMSO), 5 days (fraction); higher = more cells survive
# AZD1208 + Foretinib = compound: N[C@@H]1CCCN(c2c(/C=C3\SC(=O)NC3=O)cccc2-c2ccccc2)C1 [AZD1208] + COc1cc2c(Oc3ccc(NC(=O)C4(C(=O)Nc5ccc(F)cc5)CC4)cc3F)ccnc2cc1OCCCN1CCOCC1 [Foretinib] (partner 0.25 µM)
# How it was run: (§1)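 Relative viability is defined as nuclei in treated wells over nuclei in vehicle wells. Duplicate plates were run and medians reported. Lung cancer cell lines in 1536-well plates were dosed by pin tool one day after seeding, with one drug or with a fixed anchor-drug dose plus five library-drug doses (not always all listed) in √10 steps, and nuclei were counted after 5 days.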
# XMD14-99 + Dasatinib = compound: CN1CCN(CC1)C2=CC(=C(C=C2)NC3=NC(=C(S3)C(=O)C4=C(C=CC=C4Cl)Cl)N)OC [XMD14-99] + Cc1nc(Nc2ncc(C(=O)Nc3c(C)cccc3Cl)s2)cc(N2CCN(CCO)CC2)n1 [Dasatinib] (partner 0.075 µM)
# How it was run: as §1
# AZD1208 + Crizotinib = compound: N[C@@H]1CCCN(c2c(/C=C3\SC(=O)NC3=O)cccc2-c2ccccc2)C1 [AZD1208] + C[C@@H](Oc1cc(-c2cnn(C3CCNCC3)c2)cnc1N)c1c(Cl)ccc(F)c1Cl [Crizotinib] (partner 1 µM)
# How it was run: as §1
# XMD14-99 + Alpelisib = compound: CN1CCN(CC1)C2=CC(=C(C=C2)NC3=NC(=C(S3)C(=O)C4=C(C=CC=C4Cl)Cl)N)OC [XMD14-99] + Cc1nc(NC(=O)N2CCC[C@H]2C(N)=O)sc1-c1ccnc(C(C)(C)C(F)(F)F)c1 [Alpelisib] (partner 2 µM)
# How it was run: as §1
Cell Line,relative viability (AZD1208 + Foretinib; first compound 0.08 µM),relative viability (AZD1208 + Foretinib; first compound 0.253 µM),relative viability (AZD1208 + Foretinib; first compound 0.8 µM),relative viability (AZD1208 + Foretinib; first compound 2.53 µM),relative viability (AZD1208 + Foretinib; first compound 8 µM),relative viability (XMD14-99 + Dasatinib; first compound 0.08 µM),relative viability (XMD14-99 + Dasatinib; first compound 0.8 µM),relative viability (XMD14-99 + Dasatinib; first compound 2.53 µM),relative viability (XMD14-99 + Dasatinib; first compound 8 µM),relative viability (AZD1208 + Crizotinib; first compound 0.08 µM),relative viability (AZD1208 + Crizotinib; first compound 0.253 µM),relative viability (AZD1208 + Crizotinib; first compound 0.8 µM),relative viability (AZD1208 + Crizotinib; first compound 2.53 µM),relative viability (AZD1208 + Crizotinib; first compound 8 µM),relative viability (XMD14-99 + Alpelisib; first compound 0.08 µM),relative viability (XMD14-99 + Alpelisib; first compound 0.8 µM),relative viability (XMD14-99 + Alpelisib; first compound 2.53 µM),relative viability (XMD14-99 + Alpelisib; first compound 8 µM)
201T,1.06,1.12,1.07,1.06,1,0.593,0.618,0.546,0.523,1,1.08,1.06,1.11,1.14,0.998,1,0.841,0.952
A549,0.808,1.05,0.824,0.927,0.708,–,–,–,–,0.819,0.847,0.54,0.661,0.541,0.749,0.759,0.641,0.576
A-427,0.924,1.01,0.905,0.865,0.813,0.624,0.651,0.545,0.479,0.888,0.974,0.797,0.851,0.767,1.09,1.08,0.954,0.9
ABC-1,1.16,1.02,1.13,0.92,0.967,0.555,0.689,0.483,0.46,1.03,1.23,1.11,1.09,1.11,1.03,0.985,0.927,0.747
BEN,0.609,0.602,0.47,0.571,0.459,0.29,0.36,0.25,0.244,0.729,0.825,0.611,0.639,0.402,0.94,0.936,0.854,0.801
CAL-12T,1.1,1.28,1.04,1.35,1.38,0.34,0.449,0.356,0.248,0.745,0.838,0.718,0.85,0.471,1.49,1.13,1.15,1.03
COR-L23,0.961,1.05,0.966,0.94,0.97,0.556,0.452,0.337,0.183,0.741,0.661,0.699,0.725,0.647,0.768,0.749,0.515,0.301
COR-L 105,0.849,1.09,1.05,–,1,0.345,0.388,0.255,0.281,0.806,0.766,0.717,0.881,0.68,0.851,0.849,0.823,0.806
Calu-6,0.861,0.938,0.946,0.867,0.747,–,–,–,–,0.615,0.952,0.672,0.711,0.758,0.929,0.959,0.919,0.67
ChaGo-K-1,0.855,0.903,0.808,0.875,0.73,0.564,0.6,0.51,0.483,1.1,1.28,0.99,1.16,0.9,–,–,–,–
EBC-1,0.0932,0.0985,0.0803,0.0927,0.103,–,–,–,–,0.19,0.171,0.174,0.165,0.183,0.819,0.783,0.653,0.561
EKVX,0.798,0.744,0.876,0.858,0.913,0.497,0.561,0.5,0.373,0.887,1.29,0.86,1.01,0.88,0.767,0.985,0.876,0.696
EMC-BAC-2,1.01,1.04,1,1.02,0.727,0.311,0.334,0.334,0.286,0.84,0.785,0.74,0.798,0.674,0.728,0.767,0.74,0.619
EPLC-272H,0.714,0.71,0.618,0.564,0.478,0.323,0.325,0.402,0.392,0.93,1,0.792,0.849,0.726,0.938,1.01,0.928,0.92
H3255,0.919,0.867,0.65,0.954,0.932,0.437,0.496,0.347,0.249,0.897,0.854,0.916,0.828,0.774,0.605,0.636,0.629,0.506
HARA,0.905,0.709,0.827,0.539,0.804,0.274,0.249,0.273,0.189,0.938,1.02,1.02,1.02,0.943,0.872,0.784,0.734,0.481
HCC-15,0.956,0.994,0.876,0.88,0.855,0.601,0.65,0.548,0.431,0.849,0.788,0.707,0.752,0.641,0.906,0.883,0.827,0.657
HCC-44,–,–,–,–,–,–,–,–,–,0.828,0.905,0.788,0.879,0.82,0.825,0.788,0.821,0.797
HCC-78,0.549,0.499,0.512,0.526,0.625,0.421,0.299,0.431,0.239,0.338,0.366,0.333,0.356,0.323,0.371,0.308,0.331,0.291
HCC-366,0.903,0.985,0.843,0.949,0.899,0.596,0.609,0.603,0.528,0.479,0.593,0.536,0.452,0.246,0.475,0.413,0.366,0.232
HCC-827,1.14,1.1,1.05,1,1.03,0.322,0.281,0.309,0.256,0.93,0.992,0.931,0.915,0.936,1.05,0.902,0.948,0.741

Cell Line,relative viability (AZD1208 + Foretinib; first compound 0.08 µM),relative viability (AZD1208 + Foretinib; first compound 0.253 µM),relative viability (AZD1208 + Foretinib; first compound 0.8 µM),relative viability (AZD1208 + Foretinib; first compound 2.53 µM),relative viability (AZD1208 + Foretinib; first compound 8 µM),relative viability (XMD14-99 + Dasatinib; first compound 0.08 µM),relative viability (XMD14-99 + Dasatinib; first compound 0.8 µM),relative viability (XMD14-99 + Dasatinib; first compound 2.53 µM),relative viability (XMD14-99 + Dasatinib; first compound 8 µM),relative viability (AZD1208 + Crizotinib; first compound 0.08 µM),relative viability (AZD1208 + Crizotinib; first compound 0.253 µM),relative viability (AZD1208 + Crizotinib; first compound 0.8 µM),relative viability (AZD1208 + Crizotinib; first compound 2.53 µM),relative viability (AZD1208 + Crizotinib; first compound 8 µM),relative viability (XMD14-99 + Alpelisib; first compound 0.08 µM),relative viability (XMD14-99 + Alpelisib; first compound 0.8 µM),relative viability (XMD14-99 + Alpelisib; first compound 2.53 µM),relative viability (XMD14-99 + Alpelisib; first compound 8 µM)
HOP-62,1.03,1.16,1.02,1.03,1.06,0.635,0.658,0.656,0.496,0.991,0.869,0.895,0.883,0.969,0.883,1,1.04,0.818
IA-LM,1.07,1.09,0.924,1.14,1.05,–,–,–,–,0.827,0.724,0.797,0.669,0.748,0.72,0.638,0.515,0.456
LC-2-ad,0.903,0.924,0.871,0.85,0.912,0.541,0.643,0.535,0.476,0.488,0.401,0.421,0.383,0.392,0.855,0.863,0.839,0.633
LCLC-97TM1,0.914,0.945,1.03,0.891,0.8,0.837,0.766,0.73,0.559,0.464,0.515,–,0.318,0.294,0.263,0.201,0.202,0.202
LCLC-103H,0.771,0.665,0.56,0.558,0.485,0.383,0.582,0.472,0.442,1.03,1.11,1.05,1.31,1.03,0.867,1.04,0.959,0.863
LK-2,0.935,0.707,0.821,0.574,0.421,0.279,0.214,0.281,0.204,0.28,0.211,0.212,0.275,0.252,1.01,1.11,0.855,1.05
LOU-NH91,0.943,0.876,0.874,0.93,0.909,0.591,0.584,0.541,0.472,0.728,0.728,0.727,0.693,0.721,0.72,0.804,0.735,0.622
LU99A,0.707,0.882,0.782,0.82,0.611,0.655,0.526,0.464,0.305,0.517,0.541,0.519,0.488,0.446,0.511,0.547,0.46,0.415
LXF-289,0.978,1.03,0.996,0.962,1.03,0.238,0.173,0.208,0.204,0.853,0.894,0.8,0.814,0.928,1,0.971,1.02,0.835
NCI-H23,0.914,0.648,0.9,0.967,0.748,0.787,0.777,0.724,0.636,0.377,0.467,0.372,0.426,0.34,0.608,0.657,0.69,0.491
NCI-H522,–,–,–,–,–,0.821,0.93,0.83,0.805,–,–,–,–,–,–,–,–,–
NCI-H1299,1.11,1.08,1.08,1.14,1.07,–,–,–,–,0.958,1,0.933,0.969,0.963,1.05,1.04,1.05,0.884
NCI-H1395,0.988,1,1.01,0.97,0.959,0.391,0.425,0.457,0.363,–,–,–,–,–,1.07,1.17,1.05,0.883
NCI-H1623,0.838,0.763,0.801,0.837,0.771,0.542,0.515,0.516,0.504,–,–,–,–,–,–,–,–,–
NCI-H1650,1.08,0.993,1.17,1.05,1.1,0.335,0.289,0.316,0.2,0.954,0.972,1.04,0.921,0.71,–,–,–,–
NCI-H1703,0.268,0.333,0.275,0.301,0.335,–,–,–,–,0.365,0.53,0.579,0.594,0.461,0.338,0.36,0.487,0.334
NCI-H1792,–,–,–,–,–,0.73,0.71,0.631,0.503,1.03,1.08,0.858,0.956,0.907,0.688,0.734,0.627,0.474
NCI-H1793,0.578,0.653,0.545,0.749,0.631,0.403,0.362,0.355,0.334,–,–,–,–,–,0.77,0.641,0.666,0.476
NCI-H2342,0.922,0.946,0.934,1.02,0.801,0.29,0.292,0.354,0.285,–,–,–,–,–,–,–,–,–
SW 900,0.817,0.807,0.691,0.947,0.923,0.662,0.784,0.702,0.426,–,–,–,–,–,–,–,–,–
